Legend:
PI3K p110 beta/p85 alpha = PI3K p110 beta/p85 alpha (Homo sapiens, UniProt P42338); test: Inhibition of N-terminal His6-tagged recombinant full-length human p110beta/untagged recombinant full length p85alpha expressed in baculovirus infected Sf21 cells using phosphatidylinositol as substrate in presence of gamma-32P-ATP after 5 mins by thin layer chromatographic method
[1] = target: PI3-kinase p110-delta/p85-alpha (Homo sapiens, UniProt O00329); test: Inhibition of N-terminal His6-tagged recombinant full-length human p110delta/untagged recombinant full length p85alpha expressed in baculovirus infected Sf21 cells using phosphatidylinositol as substrate in presence of gamma-32P-ATP after 5 mins by thin layer chromatographic method
Chain of PI3-kinase p110-delta/p85-alpha (P27986 whole entry): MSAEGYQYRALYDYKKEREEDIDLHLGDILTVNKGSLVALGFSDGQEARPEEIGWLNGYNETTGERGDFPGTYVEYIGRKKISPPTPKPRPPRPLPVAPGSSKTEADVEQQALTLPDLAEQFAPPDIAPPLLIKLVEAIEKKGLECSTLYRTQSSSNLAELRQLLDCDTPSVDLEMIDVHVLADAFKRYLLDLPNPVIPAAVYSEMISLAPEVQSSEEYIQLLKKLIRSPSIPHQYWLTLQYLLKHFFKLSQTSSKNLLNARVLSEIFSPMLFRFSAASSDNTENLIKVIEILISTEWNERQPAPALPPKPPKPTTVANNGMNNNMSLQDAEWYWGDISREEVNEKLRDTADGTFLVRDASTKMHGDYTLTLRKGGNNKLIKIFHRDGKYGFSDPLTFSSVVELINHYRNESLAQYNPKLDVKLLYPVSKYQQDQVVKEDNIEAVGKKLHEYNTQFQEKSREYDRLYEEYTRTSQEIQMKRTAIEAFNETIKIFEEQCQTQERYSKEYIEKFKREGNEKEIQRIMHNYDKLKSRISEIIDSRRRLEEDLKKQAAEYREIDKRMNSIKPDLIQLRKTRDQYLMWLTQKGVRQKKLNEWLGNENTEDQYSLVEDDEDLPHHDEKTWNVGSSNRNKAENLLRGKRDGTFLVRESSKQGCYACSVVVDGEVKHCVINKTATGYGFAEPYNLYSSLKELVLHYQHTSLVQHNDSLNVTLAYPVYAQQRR
Chain of PI3-kinase p110-delta/p85-alpha (O00329 whole entry): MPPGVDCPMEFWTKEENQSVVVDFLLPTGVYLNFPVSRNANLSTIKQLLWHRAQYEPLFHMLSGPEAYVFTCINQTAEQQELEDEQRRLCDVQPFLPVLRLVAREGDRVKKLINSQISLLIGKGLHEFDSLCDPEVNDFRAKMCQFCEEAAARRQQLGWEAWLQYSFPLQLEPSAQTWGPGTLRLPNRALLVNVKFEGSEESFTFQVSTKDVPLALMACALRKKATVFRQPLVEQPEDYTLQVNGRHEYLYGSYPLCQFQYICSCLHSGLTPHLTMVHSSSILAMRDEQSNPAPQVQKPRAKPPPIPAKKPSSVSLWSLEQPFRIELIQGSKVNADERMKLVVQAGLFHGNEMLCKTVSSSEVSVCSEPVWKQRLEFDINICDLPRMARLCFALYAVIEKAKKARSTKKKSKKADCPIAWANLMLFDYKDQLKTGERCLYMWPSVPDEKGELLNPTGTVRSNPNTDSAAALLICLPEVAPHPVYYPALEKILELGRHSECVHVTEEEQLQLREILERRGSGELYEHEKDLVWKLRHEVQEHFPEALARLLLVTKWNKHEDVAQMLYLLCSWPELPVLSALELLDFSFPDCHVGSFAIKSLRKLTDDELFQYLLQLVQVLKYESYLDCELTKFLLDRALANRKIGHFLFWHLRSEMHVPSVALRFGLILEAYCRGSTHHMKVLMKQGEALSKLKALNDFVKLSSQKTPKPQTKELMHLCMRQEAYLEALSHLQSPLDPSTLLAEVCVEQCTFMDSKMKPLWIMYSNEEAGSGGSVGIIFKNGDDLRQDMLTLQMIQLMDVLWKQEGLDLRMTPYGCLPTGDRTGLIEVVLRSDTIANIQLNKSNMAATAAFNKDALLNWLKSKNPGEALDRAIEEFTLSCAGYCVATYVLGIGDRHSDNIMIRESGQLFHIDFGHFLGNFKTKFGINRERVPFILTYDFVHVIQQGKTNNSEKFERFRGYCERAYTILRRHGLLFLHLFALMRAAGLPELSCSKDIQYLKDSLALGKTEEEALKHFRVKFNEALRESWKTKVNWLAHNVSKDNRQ

[2] = target: PI3-kinase p110-alpha/p85-alpha (Homo sapiens, UniProt P42336); test: Inhibition of N-terminal His6-tagged recombinant full-length human p110alpha/untagged recombinant full length human p85alpha expressed in baculovirus infected Sf21 cells using phosphatidylinositol as substrate in presence of gamma-32P-ATP after 5 mins by thin layer chromatographic method
Chain of PI3-kinase p110-alpha/p85-alpha (P27986 whole entry): as the sequence (P27986 whole entry) above
Chain of PI3-kinase p110-alpha/p85-alpha (P42336 whole entry): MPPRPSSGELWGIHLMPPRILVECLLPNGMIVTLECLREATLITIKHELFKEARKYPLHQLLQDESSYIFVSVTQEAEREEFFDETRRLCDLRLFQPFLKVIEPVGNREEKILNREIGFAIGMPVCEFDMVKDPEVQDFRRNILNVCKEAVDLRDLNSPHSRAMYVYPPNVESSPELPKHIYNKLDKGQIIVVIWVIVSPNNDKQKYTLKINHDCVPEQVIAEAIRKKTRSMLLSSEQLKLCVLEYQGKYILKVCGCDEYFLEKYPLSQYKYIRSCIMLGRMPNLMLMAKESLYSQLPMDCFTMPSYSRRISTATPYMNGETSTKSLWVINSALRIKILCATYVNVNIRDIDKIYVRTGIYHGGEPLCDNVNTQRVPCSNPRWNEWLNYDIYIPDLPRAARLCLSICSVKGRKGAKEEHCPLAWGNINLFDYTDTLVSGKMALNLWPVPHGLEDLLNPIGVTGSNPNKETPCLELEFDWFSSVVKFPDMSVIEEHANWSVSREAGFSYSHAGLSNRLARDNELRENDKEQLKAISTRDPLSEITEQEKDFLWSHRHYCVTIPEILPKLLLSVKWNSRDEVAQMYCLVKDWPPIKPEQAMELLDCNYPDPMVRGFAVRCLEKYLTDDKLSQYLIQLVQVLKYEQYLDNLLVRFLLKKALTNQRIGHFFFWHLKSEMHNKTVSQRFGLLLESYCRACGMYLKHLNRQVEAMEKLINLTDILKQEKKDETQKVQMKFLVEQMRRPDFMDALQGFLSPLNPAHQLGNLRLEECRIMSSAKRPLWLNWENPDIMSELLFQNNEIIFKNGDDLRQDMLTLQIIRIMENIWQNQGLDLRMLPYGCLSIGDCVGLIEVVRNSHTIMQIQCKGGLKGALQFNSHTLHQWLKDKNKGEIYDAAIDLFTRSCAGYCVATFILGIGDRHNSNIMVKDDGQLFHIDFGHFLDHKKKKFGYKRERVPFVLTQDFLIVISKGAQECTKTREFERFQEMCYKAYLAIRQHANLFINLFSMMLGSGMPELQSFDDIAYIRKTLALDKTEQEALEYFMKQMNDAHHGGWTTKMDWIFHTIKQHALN

[3] = Antiproliferative activity against Balb/c mouse splenic B cells preincubated for 30 mins followed by LPS or F(ab')2 donkey anti-mouse IgM and recombinant mouse IL4 stimulation measured after 72 hrs by Alamar Blue reduction assay; type: functional, cell-based

Chain of PI3K p110 beta/p85 alpha (P27986 whole entry): as the sequence (P27986 whole entry) above
Chain of PI3K p110 beta/p85 alpha (P42338 whole entry): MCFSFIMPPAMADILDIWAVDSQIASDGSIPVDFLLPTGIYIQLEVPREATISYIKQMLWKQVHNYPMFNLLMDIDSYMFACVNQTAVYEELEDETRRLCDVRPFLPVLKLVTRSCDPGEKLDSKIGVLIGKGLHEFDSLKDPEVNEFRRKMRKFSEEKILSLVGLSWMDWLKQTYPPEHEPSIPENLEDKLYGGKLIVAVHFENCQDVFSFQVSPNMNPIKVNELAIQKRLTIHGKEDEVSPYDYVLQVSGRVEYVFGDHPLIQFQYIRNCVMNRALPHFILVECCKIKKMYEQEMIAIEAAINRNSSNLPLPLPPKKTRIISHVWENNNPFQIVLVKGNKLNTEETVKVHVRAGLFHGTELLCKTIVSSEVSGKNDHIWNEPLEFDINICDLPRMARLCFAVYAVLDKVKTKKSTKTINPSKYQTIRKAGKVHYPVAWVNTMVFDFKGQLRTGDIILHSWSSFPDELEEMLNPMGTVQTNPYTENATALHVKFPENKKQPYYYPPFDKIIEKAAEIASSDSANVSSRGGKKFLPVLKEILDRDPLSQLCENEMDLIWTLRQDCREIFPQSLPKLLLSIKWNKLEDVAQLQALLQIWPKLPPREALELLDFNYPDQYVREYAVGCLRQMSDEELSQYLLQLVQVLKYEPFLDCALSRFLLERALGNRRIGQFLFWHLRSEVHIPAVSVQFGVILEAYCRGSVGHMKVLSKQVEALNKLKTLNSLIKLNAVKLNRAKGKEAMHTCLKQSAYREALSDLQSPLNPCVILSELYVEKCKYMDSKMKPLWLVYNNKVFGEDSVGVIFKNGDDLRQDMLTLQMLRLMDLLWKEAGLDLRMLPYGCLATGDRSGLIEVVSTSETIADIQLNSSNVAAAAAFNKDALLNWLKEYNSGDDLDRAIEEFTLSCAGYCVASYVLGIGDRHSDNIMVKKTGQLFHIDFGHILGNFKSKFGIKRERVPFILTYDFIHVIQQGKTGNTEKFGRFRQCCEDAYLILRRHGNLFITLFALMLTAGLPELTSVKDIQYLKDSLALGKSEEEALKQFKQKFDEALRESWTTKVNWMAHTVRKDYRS

| SMILES | IC50 (PI3K p110 beta/p85 alpha) | IC50 [1] | IC50 [2] | EC50 [3] |
| --- | --- | --- | --- | --- |
| Cc1ccccc1-n1c(Cn2nc(C#C[C@H](C)O)c3c(N)ncnc32)cc2cccc(C)c2c1=O | < 10 µM | < 1000 nM | > 10 µM | < 1000 nM |
| Cc1cccc2cc(Cn3nc(-c4cc(O)cc(F)c4)c4c(N)ncnc43)n(C3CCC3)c(=O)c12 | < 10 µM | < 100 nM | < 10 µM | < 100 nM |
| Cc1cccc2cc(Cn3nc(-c4cc(O)cc(F)c4)c4c(N)ncnc43)n(-c3ccccc3Cl)c(=O)c12 | < 1 µM | < 100 nM | < 10 µM | < 100 nM |
| CCc1ccccc1-n1c(Cn2nc(-c3cc(O)cc(F)c3)c3c(N)ncnc32)cc2cccc(C)c2c1=O | < 1 µM | < 100 nM | < 10 µM | < 100 nM |
| Cc1ccccc1-n1c(Cn2nc(-c3ccn[nH]3)c3c(N)ncnc32)cc2cccc(C)c2c1=O | > 10 µM | < 1000 nM | > 10 µM |  |
| COc1ccccc1-n1c(Cn2nc(-c3cccc(O)c3)c3c(N)ncnc32)cc2cccc(C)c2c1=O | < 10 µM | < 100 nM | > 10 µM | < 100 nM |
| Cc1ccccc1-n1c(Cn2nc(-c3ccc(F)c(O)c3)c3c(N)ncnc32)cc2cccc(F)c2c1=O | > 10 µM | < 100 nM | > 10 µM |  |
| Cc1ccccc1-n1c(Cn2nc(-c3ccc(Cl)c(O)c3)c3c(N)ncnc32)cc2ccccc2c1=O | > 10 µM | < 100 nM | > 10 µM |  |
| CC(=O)Nc1nc2ccc(-c3nn(Cc4cc5cccc(C)c5c(=O)n4C4CCC4)c4ncnc(N)c34)cc2s1 | < 1 µM | < 100 nM | < 100 µM | < 100 nM |
| Cc1ccccc1-n1c(Cn2nc(-c3ccc(F)c(O)c3)c3c(N)ncnc32)cc2cccc(C)c2c1=O | < 10 µM | < 100 nM | > 10 µM | < 100 nM |
| CC(=O)Nc1nc2ccc(-c3nn(Cc4cc5cccc(C)c5c(=O)n4C4CC4)c4ncnc(N)c34)cc2s1 | < 0.1 µM | < 100 nM | < 100 µM | < 100 nM |
| Cc1cccc2cc(Cn3nc(-c4cccc(O)c4)c4c(N)ncnc43)n(-c3ccccc3O)c(=O)c12 | < 10 µM | < 100 nM | > 10 µM | < 100 nM |
| Cc1cccnc1-n1c(Cn2nc(-c3ccc(Cl)c(O)c3)c3c(N)ncnc32)cc2cccc(C)c2c1=O | < 10 µM | < 100 nM | > 10 µM | < 100 nM |
| CCn1c(Cn2nc(-c3ccc4nc(NC(C)=O)sc4c3)c3c(N)ncnc32)cc2cccc(C)c2c1=O | < 1 µM | < 100 nM | < 100 µM | < 100 nM |
| Cc1ccccc1-n1c(Cn2nc(-c3ccc(O)c(Cl)c3)c3c(N)ncnc32)cc2cccc(C)c2c1=O | < 10 µM | < 100 nM | > 10 µM | < 1000 nM |
| Cc1cccc2cc(Cn3nc(-c4ccc(Cl)c(O)c4)c4c(N)ncnc43)n(-c3ccccc3F)c(=O)c12 | > 10 µM | < 100 nM | > 10 µM | < 1000 nM |
| Cc1cccc2cc(Cn3nc(I)c4c(N)ncnc43)n(-c3ccccc3O)c(=O)c12 | > 10 µM | < 100 nM | > 10 µM | < 1000 nM |
| CC(=O)Nc1nc2ccc(-c3nn(Cc4cc5cccc(C)c5c(=O)n4C(C)C)c4ncnc(N)c34)cc2s1 | < 10 µM | < 100 nM | < 100 µM | < 100 nM |
| Cc1cccc2cc(Cn3nc(-c4cccc(O)c4)c4c(N)ncnc43)n(-c3ccccc3C(C)C)c(=O)c12 |  | < 100 nM | > 10 µM | < 100 nM |
| Cc1cccc2cc(Cn3nc(-c4ccc(F)c(O)c4)c4c(N)ncnc43)n(C(C)C)c(=O)c12 | < 10 µM | < 100 nM | > 10 µM | < 100 nM |
| Cc1cccc2cc(Cn3nc(-c4cccc(O)c4)c4c(N)ncnc43)n(C(C)C)c(=O)c12 | < 1 µM | < 100 nM | > 10 µM | < 100 nM |
| Cc1ccccc1-n1c(Cn2nc(-c3ccc4nc(N)sc4c3)c3c(N)ncnc32)cc2cccc(C)c2c1=O | < 10 µM | < 100 nM | < 1 µM | < 1000 nM |
| CCc1ccccc1-n1c(Cn2nc(-c3cn[nH]c3)c3c(N)ncnc32)cc2cccc(C)c2c1=O | < 10 µM | < 100 nM | < 10 µM | < 100 nM |
| Cc1ccccc1-n1c(Cn2nc(-c3cccc(O)c3)c3c(N)ncnc32)cc2cccc(F)c2c1=O | > 10 µM | < 100 nM | > 10 µM |  |
| COc1cc(-c2nn(Cc3cc4cccc(C)c4c(=O)n3-c3ccccc3C)c3ncnc(N)c23)ccc1Cl | > 10 µM | < 1000 nM | > 10 µM | < 1000 nM |
| Cc1cccc2cc(Cn3nc(I)c4c(N)ncnc43)n(C3CCCCC3)c(=O)c12 | > 10 µM | < 1000 nM | > 10 µM | < 10000 nM |

| SMILES | IC50 (PI3K p110 beta/p85 alpha) | IC50 [1] | IC50 [2] | EC50 [3] |
| --- | --- | --- | --- | --- |
| Cc1cccc2cc(Cn3nc(-c4cccc(O)c4)c4c(N)ncnc43)n(-c3ccccc3)c(=O)c12 | > 10 µM | < 100 nM | > 10 µM | < 100 nM |
| Cc1ccccc1-n1c(Cn2nc(-c3ccc(Cl)c(O)c3)c3c(N)ncnc32)cc2cccc(C)c2c1=O | < 10 µM | < 100 nM | > 10 µM | < 100 nM |
| Cc1cccc2cc(Cn3nc(-c4cc(O)cc(F)c4)c4c(N)ncnc43)n(-c3ccccc3)c(=O)c12 | < 10 µM | < 100 nM | < 1 µM | < 100 nM |
| Cc1cccc2cc(Cn3nc(-c4cccc(O)c4)c4c(N)ncnc43)n(-c3ccccc3Cl)c(=O)c12 | < 10 µM | < 100 nM | > 10 µM | < 100 nM |
| Cc1ccccc1-n1c(C(C)Nc2ncnc3[nH]cnc23)cc2cccc(C)c2c1=O (stereo unspecified) | < 10 µM | < 100 nM | > 10 µM | < 100 nM |
| Cc1ccccc1-n1c(Cn2nc(Br)c3c(N)ncnc32)cc2cccc(C)c2c1=O |  | < 100 nM | > 10 µM | < 1000 nM |
| Nc1ncnc2c1c(-c1cc(O)cc(F)c1)nn2Cc1cc2cccc(Cl)c2c(=O)n1C1CC1 | < 0.1 µM | < 100 nM | < 100 µM | < 100 nM |
| Cc1cccc2cc(Cn3nc(-c4cc(O)cc(F)c4)c4c(N)ncnc43)n(C3CC3)c(=O)c12 | < 0.1 µM | < 100 nM | < 1 µM | < 100 nM |
| Cc1ccccc1-n1c(Cn2nc(-c3ccc4ncnc(N)c4c3)c3c(N)ncnc32)cc2cccc(C)c2c1=O | > 10 µM | < 100 nM | < 10 µM | < 1000 nM |
| Cc1ccccc1-n1c(Cn2nc(-c3cnc4[nH]ccc4c3)c3c(N)ncnc32)cc2cccc(C)c2c1=O |  | < 100 nM | > 10 µM | < 100 nM |
| COc1ccc(-c2nn(Cc3cc4cccc(C)c4c(=O)n3-c3ccccc3C)c3ncnc(N)c23)cc1OC | > 10 µM | < 1000 nM | > 10 µM | < 100 nM |
| Cc1cccc2cc(Cn3nc(-c4cc(O)cc(F)c4)c4c(N)ncnc43)n(C3CCCCC3)c(=O)c12 | < 10 µM | < 100 nM | > 10 µM | < 1000 nM |
| Cc1cccc2cc(Cn3nc(C#C[C@@H](C)O)c4c(N)ncnc43)n(-c3ccccc3C(C)C)c(=O)c12 | < 10 µM | < 100 nM | > 10 µM | < 100 nM |
| CC(=O)Nc1nc2ccc(-c3nn(Cc4cc5cccc(Cl)c5c(=O)n4C(C)C)c4ncnc(N)c34)cc2s1 | < 0.1 µM | < 100 nM | < 100 µM | < 100 nM |
| Cc1cccc2cc(Cn3nc(I)c4c(N)ncnc43)n(C3CC3)c(=O)c12 | < 10 µM | < 100 nM | < 10 µM | < 1000 nM |
| COc1ccccc1-n1c(Cn2nc(-c3cc(O)cc(F)c3)c3c(N)ncnc32)cc2cccc(C)c2c1=O | < 10 µM | < 100 nM | < 10 µM | < 100 nM |
| Cc1ccccc1-n1c(Cn2nc(-c3ccc(F)c(O)c3)c3c(N)ncnc32)cc2ccccc2c1=O | > 10 µM | < 100 nM | > 10 µM | < 100 nM |
| CC(=O)Nc1nc2ccc(-c3nn(Cc4cc5cccc(C)c5c(=O)n4C)c4ncnc(N)c34)cc2s1 | < 1 µM | < 100 nM | < 100 µM | < 100 nM |
| Cc1cccc2cc(Cn3nc(-c4cc(O)cc(F)c4)c4c(N)ncnc43)n(C3CCCC3)c(=O)c12 | < 10 µM | < 100 nM | < 10 µM | < 100 nM |
| Cc1ccccc1-n1c(Cn2nc(I)c3c(N)ncnc32)cc2ccccc2c1=O |  | < 1000 nM | > 10 µM | < 1000 nM |
| CNC(=O)Nc1nc2ccc(-c3nn(Cc4cc5cccc(C)c5c(=O)n4-c4ccccc4C)c4ncnc(N)c34)cc2s1 |  | < 100 nM | < 100 µM | < 100 nM |
| Cc1ccccc1-n1c(Cn2nc(-c3ccc4cc[nH]c4c3)c3c(N)ncnc32)cc2cccc(C)c2c1=O |  | < 100 nM | > 10 µM | < 1000 nM |
| COc1ccc(-c2nn(Cc3cc4cccc(C)c4c(=O)n3-c3ccccc3C)c3ncnc(N)c23)cc1 |  | < 1000 nM | > 10 µM | < 1000 nM |
| Cc1cccnc1-n1c(Cn2nc(-c3cc(O)cc(F)c3)c3c(N)ncnc32)cc2cccc(C)c2c1=O |  | < 100 nM | > 10 µM | < 100 nM |
| Cc1cccc2cc(Cn3nc(-c4ccc(F)c(O)c4)c4c(N)ncnc43)n(C3CCCC3)c(=O)c12 | > 10 µM | < 100 nM | > 10 µM |  |

Reference: ChEMBL document CHEMBL3879901, “Substituted isoquinolin-1(2H)-ones, and methods of use thereof” (2012)
